Data on four compounds can be found in ChEMBL document CHEMBL5465560, “Selectivity Literature for EUbOPEN Chemogenomic Library” (2024).

Assay [1] concerns the target Serine/threonine-protein kinase MRCK gamma (Homo sapiens) (UniProt Q6DT37). Briefly: Selectivity interaction (KinomeScan (DiscoverX)) EUB0000655a CDC42BPG. To be noted: at 10 µM.
Assay [2] concerns the target T1, Ephrin type-B receptor 2 (Homo sapiens) (UniProt P29323).
T1 sequence (whole entry): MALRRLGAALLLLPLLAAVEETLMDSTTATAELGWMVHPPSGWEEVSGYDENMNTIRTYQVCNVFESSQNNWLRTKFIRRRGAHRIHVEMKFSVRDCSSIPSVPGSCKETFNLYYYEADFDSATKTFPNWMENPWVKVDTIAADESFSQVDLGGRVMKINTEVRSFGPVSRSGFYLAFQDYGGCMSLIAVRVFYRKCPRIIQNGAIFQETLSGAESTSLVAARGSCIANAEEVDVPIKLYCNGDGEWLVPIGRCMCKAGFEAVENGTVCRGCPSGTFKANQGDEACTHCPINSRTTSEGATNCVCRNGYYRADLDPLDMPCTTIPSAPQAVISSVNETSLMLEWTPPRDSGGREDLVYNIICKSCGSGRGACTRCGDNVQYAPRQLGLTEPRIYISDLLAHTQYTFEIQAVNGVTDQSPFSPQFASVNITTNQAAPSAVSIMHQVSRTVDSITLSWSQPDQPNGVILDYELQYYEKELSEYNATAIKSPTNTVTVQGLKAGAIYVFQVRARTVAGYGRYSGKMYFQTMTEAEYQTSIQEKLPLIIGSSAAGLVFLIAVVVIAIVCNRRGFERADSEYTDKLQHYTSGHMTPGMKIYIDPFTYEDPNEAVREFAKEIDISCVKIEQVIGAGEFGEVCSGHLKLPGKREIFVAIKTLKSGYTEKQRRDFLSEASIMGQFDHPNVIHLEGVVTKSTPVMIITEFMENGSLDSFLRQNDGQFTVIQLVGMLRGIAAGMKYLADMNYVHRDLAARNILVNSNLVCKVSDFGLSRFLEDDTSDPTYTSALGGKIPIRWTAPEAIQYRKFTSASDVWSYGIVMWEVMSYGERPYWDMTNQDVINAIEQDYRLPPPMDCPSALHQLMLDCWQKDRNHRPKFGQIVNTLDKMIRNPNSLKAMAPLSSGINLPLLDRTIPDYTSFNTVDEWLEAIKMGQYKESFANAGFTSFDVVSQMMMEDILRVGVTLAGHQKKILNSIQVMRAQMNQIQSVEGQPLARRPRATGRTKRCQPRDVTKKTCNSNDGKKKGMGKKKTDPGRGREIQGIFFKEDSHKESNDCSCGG
The assay can be described thus: Selectivity interaction (KinomeScan (DiscoverX)) EUB0001079a EPHB2. To be noted: at 1 µM.

In assay [3] the target is T2, Inhibitor of nuclear factor kappa-B kinase subunit epsilon (Homo sapiens) (UniProt Q14164).
T2 sequence (whole entry): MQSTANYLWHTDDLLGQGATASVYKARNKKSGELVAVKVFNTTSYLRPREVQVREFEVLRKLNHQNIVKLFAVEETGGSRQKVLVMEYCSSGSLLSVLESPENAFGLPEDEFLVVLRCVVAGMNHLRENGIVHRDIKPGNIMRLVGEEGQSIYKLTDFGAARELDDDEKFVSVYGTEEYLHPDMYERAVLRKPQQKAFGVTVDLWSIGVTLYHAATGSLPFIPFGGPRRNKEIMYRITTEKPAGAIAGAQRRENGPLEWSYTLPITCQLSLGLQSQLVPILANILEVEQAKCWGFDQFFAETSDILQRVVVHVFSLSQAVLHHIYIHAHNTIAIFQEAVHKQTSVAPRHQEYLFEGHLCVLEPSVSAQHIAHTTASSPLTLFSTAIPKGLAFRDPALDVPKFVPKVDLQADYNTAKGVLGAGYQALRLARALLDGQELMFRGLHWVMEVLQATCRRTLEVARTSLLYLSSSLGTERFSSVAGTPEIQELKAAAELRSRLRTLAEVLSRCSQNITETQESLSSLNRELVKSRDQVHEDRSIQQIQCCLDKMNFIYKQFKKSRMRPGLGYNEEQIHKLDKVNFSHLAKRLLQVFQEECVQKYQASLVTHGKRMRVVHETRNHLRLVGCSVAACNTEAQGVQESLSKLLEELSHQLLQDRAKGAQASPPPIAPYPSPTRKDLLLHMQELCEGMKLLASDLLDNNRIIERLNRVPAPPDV
The assay can be described thus: Selectivity interaction (ActivX KiNativ screen (kinase selectivity in THP-1 cell lysates)) EUB0000639a IKBKE. The assay is classed as subcellular. To be noted: lysate.

Assay [4] has as its target T3, Serine/threonine-protein kinase VRK1 (Homo sapiens) (UniProt Q99986).
T3 sequence (whole entry): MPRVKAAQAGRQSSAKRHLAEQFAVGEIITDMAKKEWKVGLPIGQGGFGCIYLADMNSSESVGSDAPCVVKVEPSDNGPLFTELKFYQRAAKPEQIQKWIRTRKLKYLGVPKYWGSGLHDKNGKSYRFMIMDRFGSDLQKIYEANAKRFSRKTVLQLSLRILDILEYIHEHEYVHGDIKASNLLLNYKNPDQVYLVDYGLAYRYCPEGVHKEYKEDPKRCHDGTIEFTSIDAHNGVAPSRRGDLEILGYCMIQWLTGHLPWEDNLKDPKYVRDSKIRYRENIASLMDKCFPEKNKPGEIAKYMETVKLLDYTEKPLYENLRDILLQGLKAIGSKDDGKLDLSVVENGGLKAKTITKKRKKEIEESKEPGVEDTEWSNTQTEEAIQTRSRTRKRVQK
The assay can be described thus: Selectivity interaction (ProQinase) EUB0000171b VRK1.

Chain of Serine/threonine-protein kinase MRCK gamma (Homo sapiens) (Q6DT37 whole entry): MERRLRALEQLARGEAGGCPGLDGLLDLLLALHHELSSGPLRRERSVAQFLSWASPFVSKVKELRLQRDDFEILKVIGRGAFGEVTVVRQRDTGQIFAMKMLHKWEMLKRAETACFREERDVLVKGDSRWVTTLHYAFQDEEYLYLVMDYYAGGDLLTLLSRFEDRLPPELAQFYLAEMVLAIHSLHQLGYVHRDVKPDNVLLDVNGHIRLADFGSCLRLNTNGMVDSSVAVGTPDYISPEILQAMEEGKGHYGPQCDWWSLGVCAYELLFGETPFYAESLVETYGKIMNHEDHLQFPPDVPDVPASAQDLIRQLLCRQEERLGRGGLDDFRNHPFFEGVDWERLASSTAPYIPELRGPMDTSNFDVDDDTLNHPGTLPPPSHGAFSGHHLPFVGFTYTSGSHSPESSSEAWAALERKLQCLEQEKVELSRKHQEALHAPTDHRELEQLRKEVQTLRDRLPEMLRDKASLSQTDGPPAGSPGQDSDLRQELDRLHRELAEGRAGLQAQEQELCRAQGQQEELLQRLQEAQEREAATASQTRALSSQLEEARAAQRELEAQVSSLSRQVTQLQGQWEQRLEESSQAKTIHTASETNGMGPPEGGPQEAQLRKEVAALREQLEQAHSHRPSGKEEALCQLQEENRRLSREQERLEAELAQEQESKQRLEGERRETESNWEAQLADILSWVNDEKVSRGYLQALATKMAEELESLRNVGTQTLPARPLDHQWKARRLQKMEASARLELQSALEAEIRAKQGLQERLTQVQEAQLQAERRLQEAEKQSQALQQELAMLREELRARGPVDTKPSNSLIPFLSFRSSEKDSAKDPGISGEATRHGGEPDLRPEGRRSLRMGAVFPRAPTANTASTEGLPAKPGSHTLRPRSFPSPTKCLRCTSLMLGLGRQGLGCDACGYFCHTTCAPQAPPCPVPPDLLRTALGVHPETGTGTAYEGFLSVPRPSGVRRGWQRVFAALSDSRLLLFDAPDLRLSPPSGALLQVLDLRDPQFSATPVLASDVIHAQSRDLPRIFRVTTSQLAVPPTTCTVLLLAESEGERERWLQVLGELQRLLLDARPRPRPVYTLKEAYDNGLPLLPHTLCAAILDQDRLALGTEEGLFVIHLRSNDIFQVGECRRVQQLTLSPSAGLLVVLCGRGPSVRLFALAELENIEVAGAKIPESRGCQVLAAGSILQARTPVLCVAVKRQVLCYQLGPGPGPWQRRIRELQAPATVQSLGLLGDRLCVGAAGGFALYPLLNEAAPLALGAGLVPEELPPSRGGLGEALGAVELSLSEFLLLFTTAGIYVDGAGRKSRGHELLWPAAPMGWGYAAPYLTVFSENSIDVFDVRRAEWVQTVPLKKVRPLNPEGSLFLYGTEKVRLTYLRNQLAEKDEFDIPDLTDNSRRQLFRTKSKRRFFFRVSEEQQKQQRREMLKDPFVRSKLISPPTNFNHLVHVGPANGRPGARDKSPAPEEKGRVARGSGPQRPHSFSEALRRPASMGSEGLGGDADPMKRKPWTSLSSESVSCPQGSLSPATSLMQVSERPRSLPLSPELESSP

For the compound `CN(C)CCOc1ccc(-c2nc(-c3ccncc3)c(-c3ccc4c(c3)CC/C4=N\O)[nH]2)cc1`, the % of control in assay [1] worked out at 32%.
In the case of `Nc1cnc(N2CCc3cc(S(=O)(=O)Nc4c(F)cc(Cl)cc4F)cc(N4CCCC4=O)c32)nc1` [TP-020n], in assay [2], the % of control was 87%.
For `CC[C@@H]1[C@H](F)C(=O)N[C@@H]1COc1nccc2cc(C(N)=O)c(OC)cc12` [ZIMLOVISERTIB], the % of inhibition is 20.6% in assay [3] (at 0.01 µM); 7.3% in assay [3] (at 0.04 µM); 30.8% in assay [3] (at 0.2 µM); 60.2% in assay [3] (at 1 µM); 82.3% in assay [3] (at 5 µM).
For `C=CC(=O)Nc1cccc(C(=O)Nc2ccc(Nc3cc(-c4[nH]c(SC)nc4C)ccn3)cc2)c1`, the % of control in assay [4] (at 1 µM) stood at 95%; in assay [4] (at 5 µM), 97%.
